{
  "source": "ChEMBL document CHEMBL5291721",
  "about": "“A preclinical secondary pharmacology resource illuminates target-adverse drug reaction associations of marketed drugs” (Nat Commun, 2023); also: assay procedure not described here",
  "key": {"Progesterone receptor": {"target": "T1, Progesterone receptor (Homo sapiens, UniProt P06401)", "T1 sequence (P06401 whole entry)": "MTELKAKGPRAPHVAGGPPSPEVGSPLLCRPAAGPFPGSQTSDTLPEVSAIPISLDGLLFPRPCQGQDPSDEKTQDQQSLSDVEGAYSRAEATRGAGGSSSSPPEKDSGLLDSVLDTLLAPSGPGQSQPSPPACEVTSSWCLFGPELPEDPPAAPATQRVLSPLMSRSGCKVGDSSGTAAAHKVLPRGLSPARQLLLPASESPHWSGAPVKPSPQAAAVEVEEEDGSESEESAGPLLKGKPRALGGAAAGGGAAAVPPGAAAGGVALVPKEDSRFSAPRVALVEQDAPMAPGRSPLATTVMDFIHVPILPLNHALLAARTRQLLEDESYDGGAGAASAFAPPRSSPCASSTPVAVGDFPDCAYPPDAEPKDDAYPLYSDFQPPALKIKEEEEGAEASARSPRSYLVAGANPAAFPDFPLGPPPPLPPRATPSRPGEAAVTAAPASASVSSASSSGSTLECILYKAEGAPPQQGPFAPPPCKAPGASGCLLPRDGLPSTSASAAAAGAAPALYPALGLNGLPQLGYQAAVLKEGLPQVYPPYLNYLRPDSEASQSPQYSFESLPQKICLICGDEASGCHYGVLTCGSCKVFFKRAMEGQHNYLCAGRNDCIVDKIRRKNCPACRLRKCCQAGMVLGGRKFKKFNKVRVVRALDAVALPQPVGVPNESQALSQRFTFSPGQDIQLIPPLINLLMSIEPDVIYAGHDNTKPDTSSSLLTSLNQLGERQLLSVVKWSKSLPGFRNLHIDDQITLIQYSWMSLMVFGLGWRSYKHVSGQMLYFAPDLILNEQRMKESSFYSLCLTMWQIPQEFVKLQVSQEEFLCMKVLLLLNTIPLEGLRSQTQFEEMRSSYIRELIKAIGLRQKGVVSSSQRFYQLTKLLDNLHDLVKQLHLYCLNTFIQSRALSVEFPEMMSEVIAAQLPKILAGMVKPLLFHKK"}, "[1]": {"target": "T2, Endothelin receptor type B (Homo sapiens, UniProt P24530)", "T2 sequence (P24530 whole entry)": "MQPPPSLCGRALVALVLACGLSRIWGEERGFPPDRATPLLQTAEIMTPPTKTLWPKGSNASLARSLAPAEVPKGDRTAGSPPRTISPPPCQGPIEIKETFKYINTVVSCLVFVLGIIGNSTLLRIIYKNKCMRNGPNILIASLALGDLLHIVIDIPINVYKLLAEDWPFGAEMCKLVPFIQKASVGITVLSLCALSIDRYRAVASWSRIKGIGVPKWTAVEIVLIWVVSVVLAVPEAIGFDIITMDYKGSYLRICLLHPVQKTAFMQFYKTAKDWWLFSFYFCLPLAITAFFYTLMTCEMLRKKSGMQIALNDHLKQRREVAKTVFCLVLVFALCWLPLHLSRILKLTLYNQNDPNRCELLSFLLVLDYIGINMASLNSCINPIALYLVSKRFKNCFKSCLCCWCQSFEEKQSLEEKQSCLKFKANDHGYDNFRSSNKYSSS"}, "D(4) dopamine receptor": {"target": "T3, D(4) dopamine receptor (Homo sapiens, UniProt P21917)", "T3 sequence (P21917 whole entry)": "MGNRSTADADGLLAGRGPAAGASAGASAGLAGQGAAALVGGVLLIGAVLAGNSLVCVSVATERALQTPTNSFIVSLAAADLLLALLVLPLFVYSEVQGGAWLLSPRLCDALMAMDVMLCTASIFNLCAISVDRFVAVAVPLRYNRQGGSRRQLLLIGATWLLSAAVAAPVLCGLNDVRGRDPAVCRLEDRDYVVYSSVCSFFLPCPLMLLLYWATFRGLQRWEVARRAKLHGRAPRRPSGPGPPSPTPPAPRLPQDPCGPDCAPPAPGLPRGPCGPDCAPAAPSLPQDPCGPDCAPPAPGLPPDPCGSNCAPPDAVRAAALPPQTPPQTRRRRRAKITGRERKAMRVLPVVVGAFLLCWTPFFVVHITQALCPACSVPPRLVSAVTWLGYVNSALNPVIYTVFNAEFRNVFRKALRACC"}, "Androgen receptor [2]": {"target": "T4, Androgen receptor (Rattus norvegicus, UniProt P15207)", "T4 sequence (P15207 whole entry)": "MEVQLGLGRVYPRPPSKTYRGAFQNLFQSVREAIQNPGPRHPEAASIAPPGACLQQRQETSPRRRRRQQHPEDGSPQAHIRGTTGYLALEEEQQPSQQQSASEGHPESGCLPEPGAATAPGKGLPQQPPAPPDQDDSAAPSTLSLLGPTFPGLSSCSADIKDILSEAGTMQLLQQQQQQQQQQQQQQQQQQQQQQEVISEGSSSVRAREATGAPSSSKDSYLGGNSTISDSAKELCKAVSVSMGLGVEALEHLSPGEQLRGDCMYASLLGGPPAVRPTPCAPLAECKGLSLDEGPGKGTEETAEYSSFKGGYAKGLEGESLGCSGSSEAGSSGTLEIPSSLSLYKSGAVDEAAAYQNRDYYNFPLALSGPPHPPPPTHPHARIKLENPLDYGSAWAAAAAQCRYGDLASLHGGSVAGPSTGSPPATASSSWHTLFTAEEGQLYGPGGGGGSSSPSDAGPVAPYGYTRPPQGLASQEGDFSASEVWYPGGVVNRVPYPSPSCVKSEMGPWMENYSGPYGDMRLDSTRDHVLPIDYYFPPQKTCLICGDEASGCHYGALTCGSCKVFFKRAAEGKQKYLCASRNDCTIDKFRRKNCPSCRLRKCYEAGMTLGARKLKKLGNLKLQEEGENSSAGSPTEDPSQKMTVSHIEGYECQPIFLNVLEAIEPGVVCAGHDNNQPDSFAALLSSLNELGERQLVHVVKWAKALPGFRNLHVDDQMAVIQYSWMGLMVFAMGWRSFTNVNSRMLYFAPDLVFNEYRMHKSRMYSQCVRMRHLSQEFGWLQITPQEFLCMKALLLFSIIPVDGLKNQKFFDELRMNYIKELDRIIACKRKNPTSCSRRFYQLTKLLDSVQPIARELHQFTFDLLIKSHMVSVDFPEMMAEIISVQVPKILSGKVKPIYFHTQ", "assay_type": "functional"}, "[3]": {"target": "Voltage-dependent L-type calcium channel subunit alpha-1C (Homo sapiens, UniProt Q13936)", "sequence (Q13936 whole entry)": "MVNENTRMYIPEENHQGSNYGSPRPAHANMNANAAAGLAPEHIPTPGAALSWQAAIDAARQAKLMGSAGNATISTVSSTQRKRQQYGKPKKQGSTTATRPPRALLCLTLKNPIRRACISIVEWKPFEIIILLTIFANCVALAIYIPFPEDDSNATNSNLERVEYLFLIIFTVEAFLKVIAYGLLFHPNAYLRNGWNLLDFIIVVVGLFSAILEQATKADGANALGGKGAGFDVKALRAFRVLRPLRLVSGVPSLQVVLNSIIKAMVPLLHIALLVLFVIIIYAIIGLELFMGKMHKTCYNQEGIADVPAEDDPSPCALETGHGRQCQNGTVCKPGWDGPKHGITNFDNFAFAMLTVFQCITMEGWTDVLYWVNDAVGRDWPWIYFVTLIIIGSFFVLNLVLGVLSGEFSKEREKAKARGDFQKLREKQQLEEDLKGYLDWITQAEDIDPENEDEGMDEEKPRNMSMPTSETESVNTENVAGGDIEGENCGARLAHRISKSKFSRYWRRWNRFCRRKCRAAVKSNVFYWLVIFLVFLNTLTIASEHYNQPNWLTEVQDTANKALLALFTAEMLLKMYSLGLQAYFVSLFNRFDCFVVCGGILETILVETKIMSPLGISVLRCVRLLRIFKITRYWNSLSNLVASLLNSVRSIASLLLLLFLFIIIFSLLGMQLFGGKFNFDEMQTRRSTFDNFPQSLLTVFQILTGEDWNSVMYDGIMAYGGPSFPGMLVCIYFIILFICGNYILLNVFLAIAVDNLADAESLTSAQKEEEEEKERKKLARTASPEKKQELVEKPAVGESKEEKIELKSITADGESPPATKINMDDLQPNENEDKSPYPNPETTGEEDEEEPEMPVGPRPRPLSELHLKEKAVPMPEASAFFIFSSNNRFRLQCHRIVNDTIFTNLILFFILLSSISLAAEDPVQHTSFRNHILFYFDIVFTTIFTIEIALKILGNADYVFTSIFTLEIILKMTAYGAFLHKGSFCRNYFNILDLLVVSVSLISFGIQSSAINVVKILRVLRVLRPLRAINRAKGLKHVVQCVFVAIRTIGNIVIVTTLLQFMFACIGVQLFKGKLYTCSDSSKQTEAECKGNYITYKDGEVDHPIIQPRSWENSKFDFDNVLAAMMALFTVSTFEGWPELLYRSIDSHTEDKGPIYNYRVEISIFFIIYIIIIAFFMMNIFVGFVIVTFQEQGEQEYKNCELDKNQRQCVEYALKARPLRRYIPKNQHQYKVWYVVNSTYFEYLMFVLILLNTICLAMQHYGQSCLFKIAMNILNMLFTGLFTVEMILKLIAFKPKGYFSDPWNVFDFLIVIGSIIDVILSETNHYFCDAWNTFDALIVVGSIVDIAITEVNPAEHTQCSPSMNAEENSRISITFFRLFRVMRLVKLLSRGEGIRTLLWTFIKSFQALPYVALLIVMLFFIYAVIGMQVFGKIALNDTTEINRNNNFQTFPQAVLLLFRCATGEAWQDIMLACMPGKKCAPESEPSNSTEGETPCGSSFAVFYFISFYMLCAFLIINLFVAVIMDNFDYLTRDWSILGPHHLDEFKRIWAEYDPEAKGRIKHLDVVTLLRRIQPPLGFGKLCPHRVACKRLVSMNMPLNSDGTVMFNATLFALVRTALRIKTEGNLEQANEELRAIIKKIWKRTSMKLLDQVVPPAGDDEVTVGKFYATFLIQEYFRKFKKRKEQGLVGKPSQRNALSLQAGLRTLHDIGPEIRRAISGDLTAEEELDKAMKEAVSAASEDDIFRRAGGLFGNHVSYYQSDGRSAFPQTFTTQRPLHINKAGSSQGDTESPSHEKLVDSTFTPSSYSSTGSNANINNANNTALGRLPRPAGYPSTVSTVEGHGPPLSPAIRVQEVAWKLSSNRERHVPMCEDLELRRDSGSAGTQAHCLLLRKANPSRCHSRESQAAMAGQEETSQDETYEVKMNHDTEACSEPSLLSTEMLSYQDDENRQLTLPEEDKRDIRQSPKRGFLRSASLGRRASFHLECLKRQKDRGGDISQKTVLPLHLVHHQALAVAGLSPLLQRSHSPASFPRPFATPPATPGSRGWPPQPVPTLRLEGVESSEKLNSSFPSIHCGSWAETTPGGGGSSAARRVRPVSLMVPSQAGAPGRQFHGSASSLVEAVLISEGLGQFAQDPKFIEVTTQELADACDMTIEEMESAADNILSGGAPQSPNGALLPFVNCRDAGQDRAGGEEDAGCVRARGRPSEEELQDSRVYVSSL", "assay_type": "functional, cell-based"}, "Androgen receptor [4]": {"target": "T4, Androgen receptor"}},
  "data": [
    {"smiles": "N=C(N)NC(=O)c1nc(Cl)c(N)nc1N", "note": "[AMILORIDE]", "values": [
      {"measurement": "AC50", "setting": "Progesterone receptor", "result": "> 30", "unit": "µM"},
      {"measurement": "AC50", "setting": "[1]", "result": "> 30", "unit": "µM"},
      {"measurement": "AC50", "setting": "D(4) dopamine receptor", "result": "> 10", "unit": "µM"}
    ]},
    {"smiles": "C[C@]12C=CC(=O)C=C1C(Cl)=C[C@@H]1[C@@H]2[C@@H](O)C[C@@]2(C)[C@H]1CC[C@]2(O)C(=O)CO", "note": "[CLOPREDNOL]", "values": [
      {"measurement": "AC50", "setting": "Androgen receptor [2]", "result": "> 30", "unit": "µM"}
    ]},
    {"smiles": "COc1cccc2c1C(=O)c1c(O)c3c(c(O)c1C2=O)C[C@@](O)(C(=O)CO)C[C@@H]3O[C@H]1C[C@H](N)[C@H](O)[C@H](C)O1", "note": "[DOXORUBICIN]", "values": [
      {"measurement": "AC50", "setting": "Progesterone receptor", "result": 1.7, "unit": "µM"},
      {"measurement": "AC50", "setting": "[3]", "result": "> 50", "unit": "µM"}
    ]},
    {"smiles": "CC(C)(Oc1ccc(Cl)cc1)C(=O)OCCOC(=O)c1cccnc1", "note": "[ETOFIBRATE]", "values": [
      {"measurement": "AC50", "setting": "Androgen receptor [2]", "result": "> 30", "unit": "µM"}
    ]},
    {"smiles": "C[C@]12C=CC(=O)C=C1CC[C@@H]1[C@@H]2[C@@H](O)C[C@@]2(C)[C@H]1CC[C@]2(O)C(=O)CO", "note": "[PREDNISOLONE]", "values": [
      {"measurement": "AC50", "setting": "[1]", "result": "> 30", "unit": "µM"}
    ]},
    {"smiles": "CCC(=O)c1ccc2c(c1)N(CC(C)N(C)C)c1ccccc1S2", "note": "(configuration not stated) [PROPIOMAZINE]", "values": [
      {"measurement": "AC50", "setting": "Androgen receptor [4]", "result": "> 30", "unit": "µM"}
    ]},
    {"smiles": "CN(C)[C@@H]1C(O)=C(C(=O)NCN2CCCC2)C(=O)[C@@]2(O)C(O)=C3C(=O)c4c(O)cccc4[C@@](C)(O)[C@H]3C[C@@H]12", "note": "[ROLITETRACYCLINE]", "values": [
      {"measurement": "AC50", "setting": "Androgen receptor [4]", "result": 4.35, "unit": "µM"}
    ]},
    {"smiles": "C[C@@H]1CN(c2c(F)c(N)c3c(=O)c(C(=O)O)cn(C4CC4)c3c2F)C[C@H](C)N1", "note": "[SPARFLOXACIN]", "values": [
      {"measurement": "AC50", "setting": "[3]", "result": "> 50", "unit": "µM"}
    ]},
    {"smiles": "Cc1ccc(O)c([C@H](CCN(C(C)C)C(C)C)c2ccccc2)c1", "note": "[TOLTERODINE]", "values": [
      {"measurement": "AC50", "setting": "D(4) dopamine receptor", "result": "> 10", "unit": "µM"}
    ]}
  ]
}
